The values below come from US12064413B2, “Methods of treating melanoma with S-equol” (The Board of Regents of the University of Texas System, priority 2018, dated 2024).

Test [1] has as its system triple negative breast cancer (TNBC). Conditions: cited from earlier work.
The test system of the next test is B16 cells. The test is described as follows: B16 tumor growth in mice with daily subcutaneous S-equol (Example 6). Type of test: in vivo. Conditions: S-equol 20 or 60 mg/kg per day s.c. vs PBS vehicle; start at tumor mass 50 to 80 mm^3. How it is done: Further work in a preclinical animal model supports the notion of using S-cquol to treat melanoma. In immunocompromised mouse experiments, using B16, a murine tumor cell line know to be useful to study human melanoma metastasis and solid tumor formation, growth of tumors is suppressed with S-equol treatment compared to control. 0.5×10^6 B16 cells are injected into normal BL mice. When the tumor masses reach 50 to 80 mm^3 (about one week after the inoculation), the mice are given daily subcutaneous injections of S-equol (20 or 60 mg/kg per day) or PBS as a vehicle control. Tumor development is followed by caliper measurements along two orthogonal axes: length (L) and width (W) and volume (V) is estimated by the formula V=[L×(W^2)]/2. Tumors harvested from mice are fixed in 10% neutral-buffered formalin, dehydrated, embedded in paraffin, and sectioned at 3 μm thickness. Representative tumor sections from vehicle control and S-equol-treated mice are tested for Ki-67 expression to assess cell proliferation, and for ERβ pY36. Statistical significance in the experiments is assessed by two-tailed Student's t test. In all assays, p<0.05 is considered statistically significant.

The subject of a further test is cytochrome oxidase (COX). Conditions: brains from ovariectomized mice; cited from earlier work.
For the next test, the system named is rat hippocampal neurons. Conditions: cited from earlier work.
In another test the test system is melanoma. The test is described as follows: Pilot biomarker clinical study of Ki67 in melanoma subjects (Example 7). Type of test: in vivo, human. Conditions: oral S-equol 50 mg twice daily for 10-21 days; 20 subjects with melanoma. How it is done:
A pilot biomarker clinical study is performed in 20 subjects with documented melanoma to determine the effect of the ERβ agonist S-equol on Ki67 an indicator of tumor cell proliferation. Tumor cell proliferation is measured by immunohistological staining for Ki-67. Ki-67 is encoded by the gene MKI67 gene and is required to maintain individual mitotic chromosomes dispersed in the cytoplasm following nuclear envelope disassembly. Measuring the fraction of Ki-67-positive cells in a tumor is known to be a reliable parameter for assessing cancer patient prognosis. Subjects with TNBC are known to have very high levels of Ki67.
Patients enrolled in the study receive a history, physical, laboratory assessment, radiological imaging, and diagnostic biopsies. Immunohistochemistry (IHC) of Ki67 (proliferation marker), total ERβ, and pY36-ERβ (phosphorylated ERβ), B7H1 (also known as PDL-1) and MIA and S100B are conducted using core needle biopsy tissue samples prior to treatment. Patients are given oral S-equol 50 mg, twice daily for approximately two weeks (10-21 days) prior to the scheduled oncologic surgeries or start of primary systemic therapy. […]
A standard procedure for acquiring core biopsy is utilized for determining melanoma prior to enrollment. […] The tissue samples are sent for staining of total and pY36, ERβ and Ki67, and analyzed. […]

Test [2] concerns B16 melanoma tumor cell line. The test is described as follows: B16 melanoma tumor challenge in mice, S-equol and anti-PD-1 antibody alone or combined. Conditions: for tumor volume: anti-PD-1 250 μg every 3 days i.p., S-equol 50 mg/kg per day oral gavage. Type of test: in vivo. How it is done:
FIG. 4. A schema for combination therapy. Mice were administered one of: (1) vehicle+rat IgG2a; (2)S-equol+rat IgG2a; (3) vehicle+anti-PD-1 antibody; or (4)S-equol+anti-PD-1 antibody. Mice receiving anti-PD-1 antibody were given 250 μg every 3 days, intraperitoneally, and mice receiving S-equol were given 50 mg/kg per day by oral gavage. Treatment started 7 days after tumor challenge with B16 melanoma.
Melanoma cell line B16 was tested to determine the effects of a PD-1 inhibitor, S-equol and a combination of the two therapies on tumor growth. This experimental design includes four arms: (1) controls, (2) αPD-1, (3)S-cquol, and (4) αPD-1+S-equol (FIG. 4) by injecting into mice 5×10^5 cells subcutaneously. Antibodies were administered α-PD-1: 250 μg/mice by i.p. injection every 3 days and S-equol was administered at 50 mg/kg/day by oral gavage. Treatment began 7 day after tumor challenge. Tumor growth trajectories were compared within treated mice using a repeated measures linear mixed model. The primary outcome was the logarithm of the tumor size, and the test statistic is the treatment X time interaction. Tumors were measured about 10 times. The number of recipient mice use used in the studies (n=6 per group) was based on the above study.

“Also recorded” adds a separate entry of the source. Read-outs that look alike come from different tables or passages of the source.

On to atezolizumab, for which the response rate in test [1] (21 evaluable, PD-L1 expressing TNBC tumors) was 19%.

For the compound avelumab, the response rate in test [1] (168 TNBC tumors unselected for PD-L1 expression) is on record as 8.6%.

For `Oc1ccc([C@H]2COc3cc(O)ccc3C2)cc1` [S-equol], in the test on B16 cells, the growth of tumors result is reported as “suppressed”. Further, in the test with cytochrome oxidase (COX), the COX1 protein levels result is on record as “increase”. In addition, the “cytochrome oxidase (COX) activity” value with cytochrome oxidase (COX) was “increase”. In the test on rat hippocampal neurons, the “respiratory and maximal glycolysis fluxes” value is “increase”. Moreover, the “Ki67 (tumor cell proliferation, IHC) pre- vs post-treatment” value in the test on melanoma is “measurable decrease; also recorded: measurable decline”. For the same compound, the “effect on anticancer immunotherapy” value in test [2] (Example 4, FIGS. 6-9, n=6 per group) is listed as “boost anticancer immunotherapy”. Moreover, the tumor volume entry is listed as “reduce tumor volume compared to control” in test [2] (FIG. 6, over 12 days post-challenge); “reduce tumor volume compared to control” in test [2] (FIG. 7, over 19 days post-challenge); “reduce tumor volume compared to control” in test [2] (FIG. 9A, over 16 days (title) / 12 days post-challenge). For the same compound, the tumor weight result in test [2] (FIG. 8A, mice challenged with B16 melanoma) is “reduce tumor weight compared to control”.

Consider pembrolizumab, for which the response rate in test [1] (Phase 1 study, 27 women with heavily pretreated, chemotherapy resistant, metastatic TNBC that expressed PD-L1) is recorded as 18.4%.
